Data taken from patent US7888386B2, “3-(phenoxyphenylmethyl)pyrrolidine compounds” (Theravance, Inc., priority 2008, dated 2011).
Like-named read-outs stand apart in the source and are kept apart here.

Experiments:
[1] = target: T1, hNET (Homo sapiens, UniProt P23975); test: hNET binding assay (Assay 1); conditions: read-out: NET pKi (converted)
T1 construct: expressed in transfected cells; host or cells: HEK-293 derived cell line, stably transfected; membrane preparation
Procedure: (§1) Membrane radioligand binding assays were used to measure competitive inhibition of labeled ligand (^3H-citalopram or ^3H-nisoxetine or ^3H-WIN35428) binding to membranes prepared from cells expressing the respective human recombinant transporter (hSERT or hNET or hDAT) in order to determine the pKi values of test compounds at the transporters.
(§2) Recombinant human embryonic kidney (HEK-293) derived cell lines stably transfected with hSERT or hNET, respectively, were grown in DMEM medium supplemented with 10% dialyzed FBS (for hSERT) or FBS (for hNET), 100 μg/ml penicillin, 100 μg/ml streptomycin, 2 mM L-glutamine and 250 μg/ml of the aminoglycoside antibiotic G418, in a 5% CO2 humidified incubator at 37° C. When cultures reached 80% confluence, the cells were washed thoroughly in PBS (without Ca^2+ and Mg^2+) and lifted with 5 mM EDTA in PBS. Cells were pelleted by centrifugation, resuspended in lysis buffer (10 mM Tris-HCl, pH 7.5 containing 1 mM EDTA), homogenized, pelleted by centrifugation, then resuspended in 50 mM Tris-HCl, pH 7.5 and 10% sucrose at 4° C. Protein concentration of the membrane suspension was determined using a Bio-Rad Bradford Protein Assay kit. Membranes were snap frozen and stored at −80° C. Chinese hamster ovary membranes expressing hDAT (CHO-DAT) were purchased from PerkinElmer and stored at −80° C.
(§3) Stock solutions (10 mM in DMSO) of test compound were prepared and serial dilutions made using Dilution Buffer (50 mM Tris-HCl, 120 mM NaCl, 5 mM KCl, pH 7.4, 0.1% BSA, 400 μM ascorbic acid).
(§4) Following a 60 minute incubation at 22° C. (or a period sufficient to reach equilibrium), the membranes were harvested by rapid filtration over a 96-well UniFilter GF/B plate, pretreated with 0.3% polyethyleneimine, and washed 6 times with 300 μl wash buffer (50 mM Tris-HCl, 0.9% NaCl, pH 7.5 at 4° C.). Plates were dried overnight at room temperature, ˜45 μl of MicroScint™-20 (Perkin Elmer) added and bound radioactivity quantitated via liquid scintillation spectroscopy. Competitive inhibition curves and saturation isotherms were analyzed using GraphPad Prism Software package (GraphPad Software, Inc., San Diego, Calif.). IC50 values were generated from concentration response curves using the Sigmoidal Dose Response (variable slope) algorithm in Prism GraphPad.

[2] = target: T2, hSERT (Homo sapiens, UniProt P31645); test: hSERT binding assay (Assay 1)
T2 construct: expressed in transfected cells; host or cells: HEK-293 derived cell line, stably transfected; membrane preparation
Procedure: as §1, §2, §3, §4

[3] = ratio of SERT Ki to NET Ki (binding)
[4] = membranes of HEK-293 cells expressing hNET, 1.0 nM 3H-nisoxetine
[5] = ratio of binding Ki at hSERT to Ki at hNET, rounded off to the nearest tenth
[6] = ratio of SERT Ki to NET Ki from binding assays
[7] = hNET binding, the tables list only compounds with NET pKi≧8
[8] = ratio of binding Ki at SERT to Ki at NET, the tables list only compounds with a ratio in the range 0.1-100

T1 sequence (P23975 whole entry): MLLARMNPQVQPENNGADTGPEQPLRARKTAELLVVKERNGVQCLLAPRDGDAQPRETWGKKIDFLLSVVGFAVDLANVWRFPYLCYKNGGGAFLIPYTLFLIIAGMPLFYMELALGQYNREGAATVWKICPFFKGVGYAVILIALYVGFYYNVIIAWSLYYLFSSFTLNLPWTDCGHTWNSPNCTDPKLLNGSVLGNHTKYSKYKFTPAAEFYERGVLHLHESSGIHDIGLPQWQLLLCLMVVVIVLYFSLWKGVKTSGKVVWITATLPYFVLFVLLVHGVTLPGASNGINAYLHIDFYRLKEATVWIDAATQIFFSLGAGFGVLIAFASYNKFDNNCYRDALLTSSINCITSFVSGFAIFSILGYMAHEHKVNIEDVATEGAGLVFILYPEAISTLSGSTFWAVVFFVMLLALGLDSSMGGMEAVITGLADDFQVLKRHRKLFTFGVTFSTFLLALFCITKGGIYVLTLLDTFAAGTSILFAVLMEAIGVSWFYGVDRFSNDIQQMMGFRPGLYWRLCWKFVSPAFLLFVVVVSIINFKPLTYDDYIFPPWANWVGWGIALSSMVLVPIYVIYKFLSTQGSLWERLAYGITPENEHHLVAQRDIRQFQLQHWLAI
T2 sequence (P31645 whole entry): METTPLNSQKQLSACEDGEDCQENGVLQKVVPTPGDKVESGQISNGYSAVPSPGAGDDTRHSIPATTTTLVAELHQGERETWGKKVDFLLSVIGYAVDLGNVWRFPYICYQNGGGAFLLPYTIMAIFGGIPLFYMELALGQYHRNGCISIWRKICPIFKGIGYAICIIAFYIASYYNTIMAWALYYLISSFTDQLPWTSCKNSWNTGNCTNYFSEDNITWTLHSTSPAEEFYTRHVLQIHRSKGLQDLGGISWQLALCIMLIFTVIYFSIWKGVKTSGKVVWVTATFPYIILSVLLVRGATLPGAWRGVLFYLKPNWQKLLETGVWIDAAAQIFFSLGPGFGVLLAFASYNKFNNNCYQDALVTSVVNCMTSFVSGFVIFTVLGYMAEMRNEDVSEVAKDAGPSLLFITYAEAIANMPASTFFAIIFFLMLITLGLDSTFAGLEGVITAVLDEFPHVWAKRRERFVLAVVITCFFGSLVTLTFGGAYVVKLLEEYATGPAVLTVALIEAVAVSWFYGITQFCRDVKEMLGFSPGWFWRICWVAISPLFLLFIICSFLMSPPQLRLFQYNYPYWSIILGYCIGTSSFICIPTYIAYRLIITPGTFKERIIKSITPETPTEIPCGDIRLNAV

## Fc1ccc(Cl)c(F)c1O[C@@H](c1ccccc1)[C@H]1CCNC1 [40-16]
[1]; hNET binding
  Ki: 0.158 nM
[2]; [3]
  SERT Ki/NET Ki: 10

## Cc1cc(F)cc(C(Oc2cc(Cl)cc(Cl)c2)C2CCNC2)c1 (stereo not shown) [35-19]
[1]; hNET binding
  Ki: 6.31 nM
[2]; [3]
  SERT Ki/NET Ki: 0.4

## FC(F)(F)Oc1ccccc1OC(c1ccccc1)C1CCNC1 (stereo not shown) [Compound 19-18]
[1]; [4]
  Ki: 1.26 nM
[2]; [5]
  SERT Ki/NET Ki: 20

## Cc1ccc(Cl)cc1OC(c1ccccc1)C1CCNC1 (stereo not shown) [29-18]
[2]; [6]
  SERT Ki/NET Ki: 0.1

## CSc1ccccc1OC(c1ccccc1)C1CCNC1 (stereo not shown) [Compound 19-29]
[1]; [4]
  Ki: 0.631 nM
[2]; [5]
  SERT Ki/NET Ki: 25

## Fc1cc(F)cc([C@H](Oc2cc(Cl)ccc2Cl)[C@H]2CCNC2)c1 [30-4]
[1]; hNET binding assay
  Ki: 3.16 nM
[2]; [6]
  SERT Ki/NET Ki: 2.5

## Clc1c(Oc2ccccc2)cccc1OC(c1ccccc1)C1CCNC1 (stereo not shown) [Compound 25-15]
[1]; [4]
  Ki: 2.51 nM
[2]; [5]
  SERT Ki/NET Ki: 0.2

## Fc1cc(F)cc(C(Oc2cc(Cl)cc(Cl)c2Cl)C2CCNC2)c1 (stereo not shown) [39-5]
[1]; hNET binding
  Ki: 3.16 nM
[2]; [3]
  SERT Ki/NET Ki: 0.2

## Fc1ccc(Cl)cc1OC(c1ccccc1)C1CCNC1 (stereo not shown) [29-4]
[1]; hNET binding assay
  Ki: 1.26 nM
[2]; [6]
  SERT Ki/NET Ki: 1.6

## COc1ccccc1O[C@@H](c1cc(F)cc(F)c1)[C@@H]1CCNC1 (racemic) [Compound 20-31]
[1]; [4]
  Ki: 5.01 nM
[2]; [5]
  SERT Ki/NET Ki: 6.3

## Fc1c(Oc2ccccc2)cccc1OC(c1ccccc1)C1CCNC1 (stereo not shown) [Compound 25-8]
[1]; [4]
  Ki: 2.51 nM
[2]; [5]
  SERT Ki/NET Ki: 1.3

## Cc1cc(F)cc(C(Oc2ccc(Cl)cc2F)C2CCNC2)c1 (stereo not shown) [28-13]
[1]; hNET binding assay
  Ki: 5.01 nM
[2]; [6]
  SERT Ki/NET Ki: 0.5

## Fc1cc(F)cc(C(Oc2cc(Cl)cc(Cl)c2)C2CCNC2)c1 (stereo not shown) [35-16]
[2]; [3]
  SERT Ki/NET Ki: 0.5

## CCc1cc(F)ccc1OC(c1ccccc1)C1CCNC1 (stereo not shown) [27-23]
[1]; hNET binding assay
  Ki: 1 nM
[2]; [6]
  SERT Ki/NET Ki: 0.8

## COc1ccc(F)cc1O[C@@H](c1ccccc1)[C@H]1CCNC1 [29-24]
[1]; hNET binding assay
  Ki: 1 nM
[2]; [6]
  SERT Ki/NET Ki: 34

## COc1ccccc1OC(c1cccc(C(N)=O)c1)C1CCNC1 (stereo not shown) [Compound 20-30]
[1]; [4]
  Ki: 2.51 nM
[2]; [5]
  SERT Ki/NET Ki: 25

## Cc1ccc(OC(c2ccccc2)C2CCNC2)c(Cl)c1 (stereo not shown) [27-10]
[1]; hNET binding assay
  Ki: 0.631 nM
[2]; [6]
  SERT Ki/NET Ki: 0.8

## COc1ccccc1OC(c1ccccc1OC(F)(F)F)C1CCNC1 (stereo not shown) [Compound 20-23]
[1]; [4]
  Ki: 5.01 nM
[2]; [5]
  SERT Ki/NET Ki: 1.6

## c1ccc(COc2ccccc2OC(c2ccccc2)C2CCNC2)cc1 (stereo not shown) [Compound 19-23]
[2]; [5]
  SERT Ki/NET Ki: 3.2

## Fc1cc(F)cc(C(Oc2c(Cl)ccc(Cl)c2Cl)C2CCNC2)c1 (stereo not shown) [41-11]
[1]; hNET binding
  Ki: 0.398 nM
[2]; [3]
  SERT Ki/NET Ki: 0.8

## Cc1ccc(Cl)c(OC(c2ccccc2)C2CCNC2)c1Cl (stereo not shown) [40-32]
[2]; [3]
  SERT Ki/NET Ki: 1

## Cc1cc(F)ccc1O[C@@H](c1ccccc1)[C@H]1CCNC1 [27-14]
[1]; hNET binding assay
  Ki: 2 nM
[2]; [6]
  SERT Ki/NET Ki: 0.3

## N#Cc1cccc(C(Oc2cc(Cl)ccc2Cl)C2CCNC2)c1 (stereo not shown) [32-15]
[2]; [6]
  SERT Ki/NET Ki: 13

## Fc1cc(F)c(Cl)c(OC(c2ccccc2)C2CCNC2)c1F (stereo not shown) [47-7]
[1]; [7]
  Ki: 0.501 nM
[2]; [8]
  SERT Ki/NET Ki: 0.4

## Cc1cccc(O[C@@H](c2ccccc2)[C@H]2CCNC2)c1 [Compound 21-8]
[1]; [4]
  Ki: 6.31 nM
[2]; [5]
  SERT Ki/NET Ki: 2.5

## Fc1ccc(Cl)c(OC(c2ccccc2)C2CCNC2)c1 (stereo not shown) [29-12]
[1]; hNET binding assay
  Ki: 1.58 nM
[2]; [6]
  SERT Ki/NET Ki: 2

## COc1cc(Cl)c(F)cc1OC(c1cc(F)cc(F)c1)C1CCNC1 (stereo not shown) [43-2]
[1]; hNET binding
  Ki: 2 nM
[2]; [3]
  SERT Ki/NET Ki: 1.3

## Cc1ccc(Cl)c(OC(c2ccc(Cl)cc2)C2CCNC2)c1Cl (stereo not shown) [41-19]
[1]; hNET binding
  Ki: 1.26 nM
[2]; [3]
  SERT Ki/NET Ki: 0.6

## COc1cc(Cl)c(F)cc1OC(c1ccccc1)C1CCNC1 (stereo not shown) [42-8]
[1]; hNET binding
  Ki: 1.26 nM
[2]; [3]
  SERT Ki/NET Ki: 0.4

## Cc1c(F)cccc1O[C@@H](c1ccccc1)[C@H]1CCNC1 [Compound 25-19]
[1]; [4]
  Ki: 0.794 nM
[2]; [5]
  SERT Ki/NET Ki: 4

## Cc1ccc(Cl)c(OC(c2cc(F)cc(Cl)c2)C2CCNC2)c1Cl (stereo not shown) [41-24]
[1]; hNET binding
  Ki: 1 nM
[2]; [3]
  SERT Ki/NET Ki: 1

## COC(=O)c1c(F)c(F)c(F)c(F)c1OC(c1ccccc1)C1CCNC1 (stereo not shown) [49-8]
[1]; [7]
  Ki: 3.16 nM
[2]; [8]
  SERT Ki/NET Ki: 0.4

## Fc1cc(Cl)cc(C(Oc2cc(Cl)cc(Cl)c2)C2CCNC2)c1 (stereo not shown) [35-18]
[1]; hNET binding
  Ki: 5.01 nM
[2]; [3]
  SERT Ki/NET Ki: 0.5

## Cc1c(Cl)cccc1OC(c1ccccc1)C1CCNC1 (stereo not shown) [Compound 25-21]
[1]; [4]
  Ki: 1.26 nM
[2]; [5]
  SERT Ki/NET Ki: 0.6

## COc1cccc(C(Oc2cc(Cl)ccc2Cl)C2CCNC2)c1 (stereo not shown) [32-13]
[2]; [6]
  SERT Ki/NET Ki: 0.3

## Cc1cccc(Cl)c1OC(c1ccccc1)C1CCNC1 (stereo not shown) [31-13]
[2]; [6]
  SERT Ki/NET Ki: 0.6

## c1ccc(OC(c2ccccc2)C2CCNC2)cc1 (stereo not shown) [Ex. 17-1, 3-(Phenoxyphenylmethyl)pyrrolidine]
[1]; [4]
  Ki: 6.31 nM

## Cc1ccc(Cl)c(OC(c2ccccc2)C2CCNC2)c1Cl (stereo not shown) [40-31]
[2]; [3]
  SERT Ki/NET Ki: 0.6

## Fc1c(Cl)cccc1OC(c1ccccc1)C1CCNC1 (stereo not shown) [Compound 25-4]
[2]; [5]
  SERT Ki/NET Ki: 5

## COc1ccc(C)cc1OC(c1ccccc1)C1CCNC1 (stereo not shown) [29-27]
[2]; [6]
  SERT Ki/NET Ki: 2

## Cc1ccc(OC(c2ccccc2)C2CCNC2)cc1F (stereo not shown) [33-3]
[2]; [6]
  SERT Ki/NET Ki: 0.3

## NC(=O)c1cccc([C@H](Oc2cc(Cl)ccc2Cl)[C@H]2CCNC2)c1 [32-17]
[2]; [6]
  SERT Ki/NET Ki: 2

## Cc1ccc(Cl)c(OC(c2ccccc2)C2CCNC2)c1Cl (stereo not shown) [40-34]
[2]; [3]
  SERT Ki/NET Ki: 0.1

## Fc1cc(Cl)cc(OC(c2ccccc2)C2CCNC2)c1 (stereo not shown) [34-4]
[2]; [6]
  SERT Ki/NET Ki: 0.3

## Fc1cc(F)cc(C(Oc2cc(Cl)ccc2Cl)C2CCNC2)c1 (stereo not shown) [32-24]
[2]; [6]
  SERT Ki/NET Ki: 7.9

## Cc1cc(F)cc(C(Oc2c(Cl)ccc(C)c2Cl)C2CCNC2)c1 (stereo not shown) [41-22]
[2]; [3]
  SERT Ki/NET Ki: 0.3

## Cc1ccc(OC(c2ccccc2)C2CCNC2)c([N+](=O)[O-])c1 (stereo not shown) [27-33]
[2]; [6]
  SERT Ki/NET Ki: 1.6

## Cc1ccc(Cl)c(OC(c2ccccc2)C2CCNC2)c1Cl (stereo not shown) [40-33]
[2]; [3]
  SERT Ki/NET Ki: 3.2

## Clc1ccc(Cl)c(OC(c2ccccc2Cl)C2CCNC2)c1 (stereo not shown) [32-7]
[2]; [6]
  SERT Ki/NET Ki: 0.6

## Fc1ccc(Cl)c(O[C@H](c2ccccc2)[C@@H]2CCNC2)c1 [29-13]
[2]; [6]
  SERT Ki/NET Ki: 0.2

## Fc1cc(F)cc(C(Oc2cc(Cl)ccc2F)C2CCNC2)c1 (stereo not shown) [32-2]
[2]; [6]
  SERT Ki/NET Ki: 2.5

## Fc1ccc(C(Oc2cc(Cl)ccc2Cl)C2CCNC2)cc1 (stereo not shown) [32-11]
[2]; [6]
  SERT Ki/NET Ki: 4

## FC(F)(F)c1cc(Cl)ccc1OC(c1ccccc1)C1CCNC1 (stereo not shown) [27-21]
[2]; [6]
  SERT Ki/NET Ki: 0.6

## COc1ccc(F)c(OC(c2ccccc2Cl)C2CCNC2)c1 (stereo not shown) [32-3]
[2]; [6]
  SERT Ki/NET Ki: 4

## Fc1cc(F)cc([C@H](Oc2cc(Cl)ccc2Cl)[C@H]2CCNC2)c1 [32-25]
[2]; [6]
  SERT Ki/NET Ki: 25

## Fc1c(F)c(F)c(O[C@H](c2ccccc2)[C@@H]2CCNC2)c(F)c1F [49-2]
[2]; [8]
  SERT Ki/NET Ki: 0.2

## N#Cc1cccc([C@H](Oc2c(F)cc(F)cc2F)[C@H]2CCNC2)c1 [45-3]
[2]; [8]
  SERT Ki/NET Ki: 3.2

## NC(=O)c1cccc(C(Oc2c(F)ccc(F)c2Cl)C2CCNC2)c1 (stereo not shown) [41-38]
[2]; [3]
  SERT Ki/NET Ki: 0.1

## Fc1cc(F)cc(C(Oc2c(Cl)ccc(Cl)c2Cl)C2CCNC2)c1 (stereo not shown) [41-13]
[2]; [3]
  SERT Ki/NET Ki: 2
